From ChEMBL document CHEMBL1138862 (J Med Chem, 2006)

Key:
Format in all cases: functional
[1] = test system: Escherichia coli; test: Antibacterial activity against Escherichia coli W3110
[2] = test system: Escherichia coli; test: Antibacterial activity against Escherichia coli pTMV19 in presence of mevalonate
[3] = test system: Escherichia coli; test: Antibacterial activity against Escherichia coli pTMV19

Row | Compound | inhibition zone (IZ) [1] | inhibition zone (IZ) [2] | inhibition zone (IZ) [3]
1 | O=P(O)(O)C(Nc1ccc(Br)cn1)P(=O)(O)O | 12 mm | 8 mm | 11 mm
2 | CCCCCCCCC(O)(P(=O)(O)O)P(=O)(O)O | 9 mm | 0 mm | 7 mm
3 | O=P(O)(O)C(Sc1ccccn1)P(=O)(O)O | 0 mm | 0 mm | 0 mm
4 | CCC1CCCCN1C(P(=O)(O)O)P(=O)(O)O (stereo not given) | 0 mm |  | 
5 | CC1CCN(C(P(=O)(O)O)P(=O)(O)O)CC1 | 0 mm |  | 
6 | Cc1cc(Br)cnc1NC(P(=O)(O)O)P(=O)(O)O | 0 mm | 0 mm | 0 mm
7 | CC1CCCC(C)N1C(P(=O)(O)O)P(=O)(O)O (stereo not given) | 0 mm |  | 
8 | Cc1cccc(CC(O)(P(=O)(O)O)P(=O)(O)O)c1 | 0 mm | 0 mm | 0 mm
9 | CC1CCCN(C(P(=O)(O)O)P(=O)(O)O)C1 (stereo not given) | 0 mm |  | 
10 | O=P(O)(O)Cc1cccc(CP(=O)(O)O)c1 | 0 mm |  | 
11 | O=P(O)(O)C(Nc1cccc(Cc2ccccc2)c1)P(=O)(O)O | 7 mm | 0 mm | 8 mm
12 | O=P(O)(O)C(O)(Cc1cccc(Cl)c1)P(=O)(O)O | 8 mm | 0 mm | 11 mm
13 | O=P(O)(O)C(O)(Cc1cccc(C(F)(F)F)c1)P(=O)(O)O | 7 mm | 0 mm | 7 mm
14 | CCc1ccc(NC(P(=O)(O)O)P(=O)(O)O)cc1 | 0 mm |  | 
15 | CCc1cccc(NC(P(=O)(O)O)P(=O)(O)O)n1 | 0 mm |  | 
16 | O=P(O)(O)C(O)(Cc1cccc(F)c1)P(=O)(O)O | 0 mm |  | 
17 | CC(C)c1cccc(C(C)C)c1NC(P(=O)(O)O)P(=O)(O)O | 0 mm |  | 
18 | Cc1ncccc1NC(P(=O)(O)O)P(=O)(O)O | 7 mm | 12 mm | 8 mm
19 | CCC(C)NC(P(=O)(O)O)P(=O)(O)O (stereo not given) | 0 mm |  | 
20 | O=P(O)(O)C(Nc1ncccc1COc1ccccc1)P(=O)(O)O | 0 mm |  | 
21 | O=P(O)(O)C(=Nc1cccnc1)P(=O)(O)O | 0 mm |  | 
22 | O=P(O)(O)C(Nc1ncc(Br)cc1Br)P(=O)(O)O | 0 mm |  | 
23 | Cc1cccnc1NCC(P(=O)(O)O)S(=O)(=O)O (stereo not given) | 0 mm |  | 

Row | Compound | inhibition zone (IZ) [1] | inhibition zone (IZ) [2] | inhibition zone (IZ) [3]
24 | O=P(O)(O)C(Nc1cccc(Oc2ccccc2)c1)P(=O)(O)O | 0 mm |  | 
25 | Cc1ccc(C)c(COc2ccc(C)nc2NC(P(=O)(O)O)P(=O)(O)O)c1 | 0 mm | 0 mm | 0 mm
26 | O=P(O)(O)C(Nc1ccccn1)P(=O)(O)O | 7 mm | 12 mm | 8 mm
27 | O=P(O)(O)C(Nc1ccc(-c2ccccc2)cc1)P(=O)(O)O | 9 mm | 7 mm | 8 mm
28 | O=P(O)(O)C(O)(CCc1cccnc1)P(=O)(O)O | 0 mm |  | 
29 | O=P(O)(O)C(CNc1ccccn1)P(=O)(O)O | 0 mm |  | 
30 | NCCCCC(O)(P(=O)(O)O)P(=O)(O)O | 0 mm |  | 
31 | CCCCC(O)(P(=O)(O)O)P(=O)(O)O | 0 mm |  | 
32 | CC(C)(C)c1cc(NC(P(=O)(O)O)P(=O)(O)O)cc(C(C)(C)C)c1 | 0 mm |  | 
33 | O=P(O)(O)C(Nc1cccnc1)P(=O)(O)O | 0 mm |  | 
34 | O=P(O)(O)C(Nc1cccnc1Cl)P(=O)(O)O | 0 mm |  | 
35 | CC(C)(C)c1cccc(NC(P(=O)(O)O)P(=O)(O)O)c1 | 7 mm | 0 mm | 7 mm
36 | CC1CCCCN1C(P(=O)(O)O)P(=O)(O)O (stereo not given) | 0 mm |  | 
37 | CC(C)c1cccc(NC(P(=O)(O)O)P(=O)(O)O)c1 | 8 mm | 0 mm | 9 mm
38 | O=P(O)(O)C(O)(Cc1cccc(Br)c1)P(=O)(O)O | 12 mm | 0 mm | 14 mm
39 | CC(NC(P(=O)(O)O)P(=O)(O)O)c1cccc2ccccc12 (stereo not given) | 0 mm | 0 mm | 0 mm
40 | CC1CC(C)CN(C(P(=O)(O)O)P(=O)(O)O)C1 (stereo not given) | 0 mm |  | 
41 | CN(Cc1ccccc1)C(P(=O)(O)O)P(=O)(O)O | 0 mm |  | 
42 | O=P(O)(O)C(CNc1cccnc1)P(=O)(O)O | 0 mm |  | 
43 | CCCCCCCCc1ccc(C(O)(P(=O)(O)O)P(=O)(O)O)cc1 | 0 mm | 0 mm | 0 mm
44 | Cc1nc(NC(P(=O)(O)O)P(=O)(O)O)c(Br)cc1Br | 0 mm |  | 
45 | O=P(O)(O)C(O)(Cc1cn2ccccc2n1)P(=O)(O)O | 0 mm |  | 
46 | O=P(O)(O)C(Nc1cc2ccccc2cn1)P(=O)(O)O | 0 mm |  | 

Row | Compound | inhibition zone (IZ) [1] | inhibition zone (IZ) [2] | inhibition zone (IZ) [3]
47 | CCCCCCCCCCCC(O)(P(=O)(O)O)P(=O)(O)O | 0 mm |  | 
48 | O=P(O)(O)CC(c1cccnc1)P(=O)(O)O (stereo not given) | 0 mm |  | 
49 | Nc1ccc(CC(O)(P(=O)(O)O)P(=O)(O)O)cc1 | 0 mm |  | 
50 | O=P(O)(O)C(Nc1ccc(I)cn1)P(=O)(O)O | 7 mm | 7 mm | 7 mm
51 | O=P(O)(O)C(O)(Cc1ccccn1)P(=O)(O)O | 0 mm |  | 
52 | CCCCOc1ccc(NC(P(=O)(O)O)P(=O)(O)O)cc1 | 0 mm |  | 
53 | O=P(O)(O)C(N1CCCCC1)P(=O)(O)O | 0 mm |  | 
54 | CCCC(O)(P(=O)(O)O)P(=O)(O)O | 0 mm |  | 
55 | CN(CCOc1ccccc1)CCC(O)(P(=O)(O)O)P(=O)(O)O | 11 mm | 11 mm | 15 mm
56 | O=P(O)(O)CC(c1ccncc1)P(=O)(O)O (stereo not given) | 0 mm |  | 
57 | O=P(O)(O)C(Nc1ccc(Cl)cn1)P(=O)(O)O | 13 mm | 12 mm | 9 mm
58 | CCc1cccc(NC(P(=O)(O)O)P(=O)(O)O)c1 | 0 mm |  | 
59 | CCCCCCC(O)(P(=O)(O)O)P(=O)(O)O | 0 mm |  | 
60 | CC(N)CC(O)(P(=O)(O)O)P(=O)(O)O (stereo not given) | 0 mm |  | 
61 | O=P(O)(O)C(O)(CSc1ccncc1)P(=O)(O)O | 0 mm |  | 
62 | CCCCCCCCCCCCCCCCCC(O)(P(=O)(O)O)P(=O)(O)O | 0 mm |  | 
63 | O=P(O)(O)C(Nc1c(F)c(F)c(F)c(F)c1F)P(=O)(O)O | 0 mm |  | 
64 | CCCCCCCCCCCCCC(O)(P(=O)(O)O)P(=O)(O)O | 0 mm |  | 
65 | CCCCCCCCCCCCCCCC(O)(P(=O)(O)O)P(=O)(O)O | 0 mm |  | 
66 | O=P(O)(O)C(O)(Cc1ccncc1)P(=O)(O)O | 0 mm |  | 
67 | O=P(O)(O)C(Nc1ccc2c(c1)CCC2)P(=O)(O)O | 0 mm |  | 
68 | CCC(C)CNC(P(=O)(O)O)P(=O)(O)O (stereo not given) | 0 mm |  | 
69 | CCCCc1ccc(NC(P(=O)(O)O)P(=O)(O)O)cc1 | 0 mm |  | 

Row | Compound | inhibition zone (IZ) [1] | inhibition zone (IZ) [2] | inhibition zone (IZ) [3]
70 | O=P(O)(O)C(Nc1ccc(Cl)nc1)P(=O)(O)O | 0 mm |  | 
71 | O=P(O)(O)C(O)(Cc1ccccc1)P(=O)(O)O | 0 mm |  | 
72 | O=P(O)(O)C(Nc1ccc(Cl)cc1Cl)P(=O)(O)O [2,4-DICHLOROPHENYLAMINOMETHYLENEBISPHOSPHONIC ACID] | 0 mm |  | 
73 | CCCCNC(P(=O)(O)O)P(=O)(O)O [(BUTYLAMINO)METHYLENEDIPHOSPHONIC ACID] | 0 mm |  | 
74 | O=P(O)(O)C(NC1CCC1)P(=O)(O)O [(CYCLOBUTYLAMINO)METHYLENEDIPHOSPHONIC ACID] | 0 mm |  | 
75 | O=P(O)(O)C(NC1CCCC1)P(=O)(O)O [(CYCLOPENTYLAMINO)METHYLENEDIPHOSPHONIC ACID] | 0 mm |  | 
76 | CCCN(CCC)C(P(=O)(O)O)P(=O)(O)O [(DIPROPYLAMINO)METHYLENEDIPHOSPHONIC ACID] | 0 mm |  | 
77 | CC(C)CCNC(P(=O)(O)O)P(=O)(O)O [(ISOPENTYLAMINO)METHYLENEDIPHOSPHONIC ACID] | 0 mm |  | 
78 | CCCCCCCCCNC(P(=O)(O)O)P(=O)(O)O [(NONYLAMINO)METHYLENEDIPHOSPHONIC ACID] | 0 mm |  | 
79 | CCCCCCCCNC(P(=O)(O)O)P(=O)(O)O [(OCTYLAMINO)METHYLENEDIPHOSPHONIC ACID] | 0 mm |  | 
80 | CCCNC(P(=O)(O)O)P(=O)(O)O [(PROPYLAMINO)METHYLENEDIPHOSPHONIC ACID] | 0 mm |  | 
81 | O=P(O)(O)C(O)(C1CCC1)P(=O)(O)O [CYCLOBUTYL(HYDROXY)METHYLENEDIPHOSPHONIC ACID] | 0 mm |  | 
82 | O=P(O)(O)C(O)(C1CC1)P(=O)(O)O [CYCLOPROPYL(HYDROXY)METHYLENEDIPHOSPHONIC ACID] | 0 mm |  | 
83 | CCCCCN(C)CCC(O)(P(=O)(O)O)P(=O)(O)O [IBANDRONIC ACID] | 0 mm |  | 
84 | O=P(O)(O)C(NC1CCCCCC1)P(=O)(O)O [INCADRONIC ACID] | 0 mm |  | 
85 | O=P(O)(O)C(N1CCCCCCC1)P(=O)(O)O [N-(HEPTAMETHYLENEIMINO)METHYLENEBISPHOSPHONIC ACID] | 0 mm |  | 
86 | NCCCCCC(O)(P(=O)(O)O)P(=O)(O)O [NERIDRONIC ACID] | 0 mm |  | 
87 | NCCC(O)(P(=O)(O)O)P(=O)(O)O [PAMIDRONIC ACID] | 0 mm |  | 
88 | O=P(O)(O)C(O)(Cc1cccnc1)P(=O)(O)O [RISEDRONIC ACID] | 0 mm |  | 
89 | O=P(O)(O)C(N1CCSCC1)P(=O)(O)O [THIOMORPHOLINOMETHYLENEDIPHOSPHONIC ACID] | 0 mm |  | 
90 | O.O=P(O)(O)C(O)(Cn1ccnc1)P(=O)(O)O [ZOLEDRONIC ACID] | 0 mm |  | 
